Where two headings read alike, the source gives them in different places.
How the values were obtained:
Test in all cases: Kinase selectivity, P33-radiolabeled assay
Format in all cases: biochemical
Conditions in all cases: 10 μM ATP
MSK2/RPS6KA4 = target: T1, MSK2/RPS6KA4 (Homo sapiens, UniProt O75676)
T1 construct: purchased Reaction Biology Corp
In short: (§1)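 Duplicate single-concentration testing used 10 μM compound. The ATP concentration was also 10 μM.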

STK39/STLK3 = target: T2, STK39/STLK3 (Homo sapiens, UniProt Q9UEW8)
T2 construct: purchased Reaction Biology Corp
In short: as §1

FYN = target: T3, FYN (Homo sapiens, UniProt P06241)
T3 construct: purchased Reaction Biology Corp
In short: as §1

c-Kit = target: T4, c-Kit (Homo sapiens, UniProt P10721)
T4 construct: purchased Reaction Biology Corp
In short: as §1

PKN2/PRK2 = target: T5, PKN2/PRK2 (Homo sapiens, UniProt Q16513)
T5 construct: purchased Reaction Biology Corp
In short: as §1

GCK/MAP4K2 = target: T6, GCK/MAP4K2 (Homo sapiens, UniProt Q12851)
T6 construct: purchased Reaction Biology Corp
T6 sequence (Q12851 1-820): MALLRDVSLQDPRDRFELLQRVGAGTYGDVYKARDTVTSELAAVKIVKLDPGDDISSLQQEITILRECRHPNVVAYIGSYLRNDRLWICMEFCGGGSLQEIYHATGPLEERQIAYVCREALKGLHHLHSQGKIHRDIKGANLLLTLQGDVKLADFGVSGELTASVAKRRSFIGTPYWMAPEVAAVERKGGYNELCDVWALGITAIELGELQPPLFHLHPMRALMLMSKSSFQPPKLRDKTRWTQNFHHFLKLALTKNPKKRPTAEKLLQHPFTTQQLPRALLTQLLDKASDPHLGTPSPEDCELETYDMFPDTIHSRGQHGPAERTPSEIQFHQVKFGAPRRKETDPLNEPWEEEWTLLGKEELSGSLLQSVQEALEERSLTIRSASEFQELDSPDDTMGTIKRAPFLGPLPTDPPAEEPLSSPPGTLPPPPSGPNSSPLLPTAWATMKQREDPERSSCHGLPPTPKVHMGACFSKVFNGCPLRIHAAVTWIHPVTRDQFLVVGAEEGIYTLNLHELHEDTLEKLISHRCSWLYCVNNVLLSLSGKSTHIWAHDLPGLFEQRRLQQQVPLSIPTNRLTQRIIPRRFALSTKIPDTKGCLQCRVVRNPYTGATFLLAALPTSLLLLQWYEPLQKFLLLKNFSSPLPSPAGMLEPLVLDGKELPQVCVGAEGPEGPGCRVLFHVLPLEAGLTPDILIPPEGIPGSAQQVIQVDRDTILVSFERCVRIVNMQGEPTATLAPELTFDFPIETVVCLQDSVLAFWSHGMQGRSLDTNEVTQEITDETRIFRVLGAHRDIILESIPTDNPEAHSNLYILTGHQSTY
In short: as §1

PAK6 = target: T7, PAK6 (Homo sapiens, UniProt Q9NQU5)
T7 construct: purchased Reaction Biology Corp
In short: as §1

ALK6/BMPR1B = target: T8, ALK6/BMPR1B (Homo sapiens, UniProt O00238)
T8 construct: purchased Reaction Biology Corp
In short: as §1

NEK9 = target: T9, NEK9 (Homo sapiens, UniProt Q8TD19)
T9 construct: purchased Reaction Biology Corp
T9 sequence (Q8TD19 1-979): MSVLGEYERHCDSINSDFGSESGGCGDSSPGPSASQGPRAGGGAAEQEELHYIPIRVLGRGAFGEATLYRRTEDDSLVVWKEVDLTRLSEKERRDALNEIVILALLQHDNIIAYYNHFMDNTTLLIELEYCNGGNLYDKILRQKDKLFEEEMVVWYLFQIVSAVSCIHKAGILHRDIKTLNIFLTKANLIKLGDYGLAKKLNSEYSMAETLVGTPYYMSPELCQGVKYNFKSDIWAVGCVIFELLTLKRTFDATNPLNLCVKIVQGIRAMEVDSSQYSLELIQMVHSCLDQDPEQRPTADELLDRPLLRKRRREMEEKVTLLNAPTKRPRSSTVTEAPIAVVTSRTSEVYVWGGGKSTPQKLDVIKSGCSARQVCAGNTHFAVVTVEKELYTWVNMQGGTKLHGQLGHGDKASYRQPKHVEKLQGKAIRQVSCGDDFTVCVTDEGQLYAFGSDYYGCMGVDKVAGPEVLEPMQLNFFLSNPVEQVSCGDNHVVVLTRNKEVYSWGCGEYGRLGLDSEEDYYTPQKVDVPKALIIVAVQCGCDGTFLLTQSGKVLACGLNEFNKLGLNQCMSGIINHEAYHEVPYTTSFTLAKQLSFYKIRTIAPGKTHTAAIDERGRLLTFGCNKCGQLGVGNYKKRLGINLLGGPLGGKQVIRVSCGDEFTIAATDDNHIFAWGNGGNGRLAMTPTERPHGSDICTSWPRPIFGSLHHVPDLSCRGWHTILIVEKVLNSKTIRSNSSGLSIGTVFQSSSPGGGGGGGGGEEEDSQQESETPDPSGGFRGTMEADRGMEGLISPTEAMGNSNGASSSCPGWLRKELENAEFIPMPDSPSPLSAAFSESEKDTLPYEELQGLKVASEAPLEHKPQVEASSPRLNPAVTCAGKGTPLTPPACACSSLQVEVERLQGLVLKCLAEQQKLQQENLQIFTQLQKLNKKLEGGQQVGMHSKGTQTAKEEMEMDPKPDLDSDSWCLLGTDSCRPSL
In short: as §1

CDK2/Cyclin A1 = target: T10, CDK2/Cyclin A1 (Homo sapiens, UniProt P24941)
T10 construct: purchased Reaction Biology Corp
In short: as §1

[1] = read-out: % Enzyme Activity (relative to DMSO controls) AVG
[2] = read-out: % Enzyme Activity (relative to DMSO controls) Data 1
[3] = read-out: % Enzyme Activity (relative to DMSO controls) Data 2

T1 sequence (O75676 whole entry): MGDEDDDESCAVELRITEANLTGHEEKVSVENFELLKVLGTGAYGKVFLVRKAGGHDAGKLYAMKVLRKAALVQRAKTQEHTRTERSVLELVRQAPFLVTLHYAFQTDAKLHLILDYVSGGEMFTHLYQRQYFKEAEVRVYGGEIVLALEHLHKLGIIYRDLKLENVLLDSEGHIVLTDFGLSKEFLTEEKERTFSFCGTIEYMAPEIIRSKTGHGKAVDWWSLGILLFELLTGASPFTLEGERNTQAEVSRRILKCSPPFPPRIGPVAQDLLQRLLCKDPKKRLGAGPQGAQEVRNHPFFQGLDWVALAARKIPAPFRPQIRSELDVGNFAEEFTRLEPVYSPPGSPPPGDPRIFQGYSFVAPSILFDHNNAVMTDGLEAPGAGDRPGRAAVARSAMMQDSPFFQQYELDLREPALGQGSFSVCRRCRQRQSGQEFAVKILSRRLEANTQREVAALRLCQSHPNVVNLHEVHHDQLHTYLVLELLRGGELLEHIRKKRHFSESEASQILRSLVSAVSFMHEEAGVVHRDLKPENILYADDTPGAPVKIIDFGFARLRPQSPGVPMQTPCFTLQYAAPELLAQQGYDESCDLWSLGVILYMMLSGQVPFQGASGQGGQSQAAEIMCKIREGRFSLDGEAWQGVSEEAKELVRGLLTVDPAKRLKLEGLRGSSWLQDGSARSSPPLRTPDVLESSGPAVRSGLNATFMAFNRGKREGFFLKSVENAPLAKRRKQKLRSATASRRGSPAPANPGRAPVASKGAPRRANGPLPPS
T8 sequence (O00238 14-502): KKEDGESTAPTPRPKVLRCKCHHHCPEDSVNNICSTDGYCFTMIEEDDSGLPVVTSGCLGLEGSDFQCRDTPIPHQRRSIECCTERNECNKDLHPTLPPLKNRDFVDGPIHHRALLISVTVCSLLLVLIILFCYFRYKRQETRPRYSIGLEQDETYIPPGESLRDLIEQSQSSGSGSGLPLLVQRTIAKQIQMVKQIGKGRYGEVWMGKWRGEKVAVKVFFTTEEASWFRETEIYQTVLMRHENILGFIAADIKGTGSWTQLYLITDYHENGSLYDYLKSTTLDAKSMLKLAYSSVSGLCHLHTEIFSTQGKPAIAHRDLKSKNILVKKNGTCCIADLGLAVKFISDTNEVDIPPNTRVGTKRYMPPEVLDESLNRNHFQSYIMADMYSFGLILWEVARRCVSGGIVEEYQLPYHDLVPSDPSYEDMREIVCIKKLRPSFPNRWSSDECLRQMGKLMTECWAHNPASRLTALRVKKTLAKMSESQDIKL
T4 sequence (P10721 26-976): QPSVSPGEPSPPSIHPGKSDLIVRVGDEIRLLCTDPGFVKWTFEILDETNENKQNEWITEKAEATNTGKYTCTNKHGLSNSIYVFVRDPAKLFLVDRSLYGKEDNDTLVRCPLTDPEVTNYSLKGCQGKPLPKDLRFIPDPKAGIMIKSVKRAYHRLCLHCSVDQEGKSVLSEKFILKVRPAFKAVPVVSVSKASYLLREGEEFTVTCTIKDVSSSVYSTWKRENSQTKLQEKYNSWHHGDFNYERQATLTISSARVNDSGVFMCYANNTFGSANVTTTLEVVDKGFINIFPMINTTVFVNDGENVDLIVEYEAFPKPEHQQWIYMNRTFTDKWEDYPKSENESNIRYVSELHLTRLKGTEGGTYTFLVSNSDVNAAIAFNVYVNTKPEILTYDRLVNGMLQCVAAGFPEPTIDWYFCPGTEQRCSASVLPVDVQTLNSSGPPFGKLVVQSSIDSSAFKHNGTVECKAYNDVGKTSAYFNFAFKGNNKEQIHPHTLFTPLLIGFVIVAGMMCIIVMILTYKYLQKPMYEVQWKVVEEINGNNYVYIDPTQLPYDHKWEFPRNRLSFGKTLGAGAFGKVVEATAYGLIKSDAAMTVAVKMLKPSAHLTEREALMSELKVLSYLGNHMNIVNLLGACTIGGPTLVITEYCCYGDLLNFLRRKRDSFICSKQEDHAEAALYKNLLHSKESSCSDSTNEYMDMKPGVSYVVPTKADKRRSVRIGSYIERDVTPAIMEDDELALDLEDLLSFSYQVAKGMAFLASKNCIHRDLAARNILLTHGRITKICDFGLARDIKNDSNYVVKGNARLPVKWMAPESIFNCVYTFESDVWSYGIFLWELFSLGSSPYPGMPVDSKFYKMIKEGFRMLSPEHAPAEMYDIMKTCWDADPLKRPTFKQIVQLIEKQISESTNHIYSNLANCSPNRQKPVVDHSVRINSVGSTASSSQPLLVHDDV
T7 sequence (Q9NQU5 whole entry): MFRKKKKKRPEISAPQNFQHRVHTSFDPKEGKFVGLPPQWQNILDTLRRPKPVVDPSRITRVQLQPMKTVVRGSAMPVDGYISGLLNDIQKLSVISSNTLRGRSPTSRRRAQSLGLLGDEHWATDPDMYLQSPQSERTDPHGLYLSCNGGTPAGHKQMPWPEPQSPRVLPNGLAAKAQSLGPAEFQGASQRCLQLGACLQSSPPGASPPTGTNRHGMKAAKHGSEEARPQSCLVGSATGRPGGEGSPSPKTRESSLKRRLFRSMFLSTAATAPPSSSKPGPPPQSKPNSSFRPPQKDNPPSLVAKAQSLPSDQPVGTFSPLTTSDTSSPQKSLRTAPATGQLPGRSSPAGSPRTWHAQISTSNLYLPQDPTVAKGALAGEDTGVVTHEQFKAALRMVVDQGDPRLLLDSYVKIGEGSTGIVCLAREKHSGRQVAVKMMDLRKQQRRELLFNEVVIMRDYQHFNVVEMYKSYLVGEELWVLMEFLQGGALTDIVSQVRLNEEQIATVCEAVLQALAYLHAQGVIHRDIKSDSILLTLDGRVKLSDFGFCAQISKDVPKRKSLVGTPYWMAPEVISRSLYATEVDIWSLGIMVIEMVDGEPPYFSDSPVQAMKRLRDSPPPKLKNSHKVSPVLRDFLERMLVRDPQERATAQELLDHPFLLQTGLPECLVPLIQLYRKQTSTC
T3 sequence (P06241 whole entry): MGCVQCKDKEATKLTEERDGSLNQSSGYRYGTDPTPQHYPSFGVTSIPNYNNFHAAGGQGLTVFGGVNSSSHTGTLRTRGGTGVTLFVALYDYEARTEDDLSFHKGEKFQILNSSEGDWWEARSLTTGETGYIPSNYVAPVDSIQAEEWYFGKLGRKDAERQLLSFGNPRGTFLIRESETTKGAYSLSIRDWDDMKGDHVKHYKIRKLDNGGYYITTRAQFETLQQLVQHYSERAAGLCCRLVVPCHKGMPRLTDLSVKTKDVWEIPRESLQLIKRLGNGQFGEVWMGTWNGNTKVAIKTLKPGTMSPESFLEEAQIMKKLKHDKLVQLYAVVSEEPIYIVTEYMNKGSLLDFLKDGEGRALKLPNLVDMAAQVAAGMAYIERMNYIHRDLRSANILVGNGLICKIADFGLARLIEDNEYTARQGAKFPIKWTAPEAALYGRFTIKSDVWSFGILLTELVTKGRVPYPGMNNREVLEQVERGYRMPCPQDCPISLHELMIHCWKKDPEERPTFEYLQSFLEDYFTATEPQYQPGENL
T5 sequence (Q16513 whole entry): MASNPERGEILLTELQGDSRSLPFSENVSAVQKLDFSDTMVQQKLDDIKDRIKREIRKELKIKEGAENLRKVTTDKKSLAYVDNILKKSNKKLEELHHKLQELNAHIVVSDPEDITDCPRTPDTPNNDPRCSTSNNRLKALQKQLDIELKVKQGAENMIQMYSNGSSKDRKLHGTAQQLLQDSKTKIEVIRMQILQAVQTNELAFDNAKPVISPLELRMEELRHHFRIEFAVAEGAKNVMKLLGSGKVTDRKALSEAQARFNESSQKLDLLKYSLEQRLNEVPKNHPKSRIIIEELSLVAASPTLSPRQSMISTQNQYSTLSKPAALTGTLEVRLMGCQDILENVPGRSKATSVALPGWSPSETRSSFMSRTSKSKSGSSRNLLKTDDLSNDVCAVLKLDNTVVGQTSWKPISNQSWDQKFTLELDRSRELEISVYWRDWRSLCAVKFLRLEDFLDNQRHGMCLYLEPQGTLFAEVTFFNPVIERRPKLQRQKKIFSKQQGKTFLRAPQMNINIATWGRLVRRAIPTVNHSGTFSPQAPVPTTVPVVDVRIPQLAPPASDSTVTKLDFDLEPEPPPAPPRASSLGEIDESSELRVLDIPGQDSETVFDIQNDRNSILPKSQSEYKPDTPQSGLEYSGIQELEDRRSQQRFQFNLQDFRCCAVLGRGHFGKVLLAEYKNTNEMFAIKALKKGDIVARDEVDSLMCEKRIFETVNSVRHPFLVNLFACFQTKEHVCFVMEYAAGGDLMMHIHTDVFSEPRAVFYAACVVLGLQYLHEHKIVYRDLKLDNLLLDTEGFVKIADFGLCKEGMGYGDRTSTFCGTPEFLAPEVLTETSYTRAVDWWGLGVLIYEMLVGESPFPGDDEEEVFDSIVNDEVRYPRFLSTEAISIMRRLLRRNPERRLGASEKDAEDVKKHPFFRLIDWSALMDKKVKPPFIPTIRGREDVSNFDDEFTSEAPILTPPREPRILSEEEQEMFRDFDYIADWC

With `CC(C)(C)C(=O)N1N=CC[C@H]1c1ccccc1` [GSK′963] as the compound, how does the remaining activity at 10 µM (MSK2/RPS6KA4; [1]) read?
Its remaining activity at 10 µM is 104%.

And the remaining activity at 10 µM (MSK2/RPS6KA4; [2])?
Its remaining activity at 10 µM is 104%.

And the remaining activity at 10 µM (MSK2/RPS6KA4; [3])?
The remaining activity at 10 µM was 103%.

What about the remaining activity at 10 µM (STK39/STLK3; [1]) of the same compound?
The remaining activity at 10 µM was 95.1%.

And the remaining activity at 10 µM (STK39/STLK3; [2])?
Its remaining activity at 10 µM is 100%.

What about the remaining activity at 10 µM (STK39/STLK3; [3]) of the same compound?
Its remaining activity at 10 µM is 89.9%.

And the remaining activity at 10 µM (FYN; [1])?
The remaining activity at 10 µM was 106%.

What about the remaining activity at 10 µM (FYN; [2]) of the same compound?
The remaining activity at 10 µM was 104%.

What about the remaining activity at 10 µM (FYN; [3]) of the same compound?
The remaining activity at 10 µM was 107%.

And the remaining activity at 10 µM (c-Kit; [1])?
The remaining activity at 10 µM was 83.6%.

What about the remaining activity at 10 µM (c-Kit; [2]) of the same compound?
Its remaining activity at 10 µM is 83%.

And the remaining activity at 10 µM (c-Kit; [3])?
The remaining activity at 10 µM was 84.1%.

What about the remaining activity at 10 µM (PKN2/PRK2; [1]) of the same compound?
Its remaining activity at 10 µM is 93.3%.

And the remaining activity at 10 µM (PKN2/PRK2; [2])?
The remaining activity at 10 µM was 97.5%.

What about the remaining activity at 10 µM (PKN2/PRK2; [3]) of the same compound?
Its remaining activity at 10 µM is 89.2%.

What about the remaining activity at 10 µM (GCK/MAP4K2; [1]) of the same compound?
Its remaining activity at 10 µM is 109%.

And the remaining activity at 10 µM (GCK/MAP4K2; [2])?
The remaining activity at 10 µM was 108%.

And the remaining activity at 10 µM (GCK/MAP4K2; [3])?
The remaining activity at 10 µM was 110%.

And the remaining activity at 10 µM (PAK6; [1])?
The remaining activity at 10 µM was 97.1%.

What about the remaining activity at 10 µM (PAK6; [2]) of the same compound?
Its remaining activity at 10 µM is 99.6%.

What about the remaining activity at 10 µM (PAK6; [3]) of the same compound?
Its remaining activity at 10 µM is 94.7%.

And the remaining activity at 10 µM (ALK6/BMPR1B; [1])?
The remaining activity at 10 µM was 90.5%.

And the remaining activity at 10 µM (ALK6/BMPR1B; [2])?
The remaining activity at 10 µM was 91%.

And the remaining activity at 10 µM (ALK6/BMPR1B; [3])?
Its remaining activity at 10 µM is 90%.

What about the remaining activity at 10 µM (NEK9; [1]) of the same compound?
Its remaining activity at 10 µM is 92.8%.

And the remaining activity at 10 µM (NEK9; [2])?
The remaining activity at 10 µM was 92.1%.

What about the remaining activity at 10 µM (NEK9; [3]) of the same compound?
Its remaining activity at 10 µM is 93.5%.

And the remaining activity at 10 µM (CDK2/Cyclin A1; [1])?
The remaining activity at 10 µM was 107%.

And the remaining activity at 10 µM (CDK2/Cyclin A1; [2])?
The remaining activity at 10 µM was 107%.

What about the remaining activity at 10 µM (CDK2/Cyclin A1; [3]) of the same compound?
The remaining activity at 10 µM was 107%.
